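1) Cells in 96-well plates. 2) Compound, 48 h, 5 concentrations. 3) Linear interpolation between surrounding doses. 4) Unreached endpoint = highest concentration. The concentration for 50% growth inhibition is given as GI50. TGI denotes the concentration required for complete inhibition of growth.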
Key:
Assay in all cases: inhibition of tumour cell growth, NCI panel, 48 h
XF 498 CNS = tested on: XF 498 CNS
DLD-1 colon = tested on: DLD-1 colon
LXFL 529 NSCLC = tested on: LXFL 529 NSCLC
SNB-78 CNS = tested on: SNB-78 CNS
M19-MEL melanoma = tested on: M19-MEL melanoma
BT-549 breast = tested on: BT-549 breast
T-47D breast = tested on: T-47D breast
MDA-N = tested on: MDA-N

## COc1cc2c3c(c1OC)C(=O)C=C3N(S(=O)(=O)c1ccc(C)cc1)CC2
XF 498 CNS
  TGI: > 100 µM
DLD-1 colon
  TGI: > 100 µM
LXFL 529 NSCLC
  TGI: > 100 µM
SNB-78 CNS
  TGI: > 100 µM
M19-MEL melanoma
  TGI: > 100 µM

## CCCCCCCCCCOC(=O)c1cc[n+](C)cc1
XF 498 CNS
  TGI: 31.4 µM
DLD-1 colon
  TGI: 32.5 µM
LXFL 529 NSCLC
  TGI: 29.8 µM
SNB-78 CNS
  TGI: 34.4 µM
M19-MEL melanoma
  TGI: 32.9 µM

## CCN(CC)c1ccc2nc3ccc(N=Nc4ccc(O)cc4)cc3[n+](-c3ccccc3)c2c1
BT-549 breast
  GI50: 10.5 µM
  TGI: 31.8 µM
T-47D breast
  GI50: 3.6 µM
  TGI: 84.1 µM

## CN1CCN(CCCOc2cccc3nc(Nc4ccc(F)c(F)c4)ccc23)CC1
BT-549 breast
  GI50: 4.34 µM
  TGI: 8.85 µM
T-47D breast
  GI50: 3.39 µM
  TGI: 9.26 µM

## CCc1nc2cc(/C=C/C(=O)NO)ccc2c(=O)n1CCc1ccc(OC)cc1
BT-549 breast
  GI50: 4.02 µM
  TGI: 34.6 µM
T-47D breast
  GI50: 1.57 µM
  TGI: 7.13 µM

## CCCCN1C(=O)/C(=c2\sc3n(c2=O)C2C(NN=3)N(CC)C(=O)N2CC)c2ccccc21 (stereo not given)
BT-549 breast
  GI50: 1.76 µM
  TGI: 9.19 µM

## COc1cc(CN(c2ccc(C)cc2)C2OC(=O)c3ccccc32)cc(OC)c1OC (stereo not given)
BT-549 breast
  GI50: 0.727 µM
  TGI: 99.3 µM

## COc1cccc(NC(=O)c2sc3nc4c(cc3c2N)C(O)CCC4)c1 (stereo not given)
BT-549 breast
  GI50: 0.274 µM
  TGI: > 100 µM
T-47D breast
  GI50: 0.727 µM
  TGI: > 100 µM

## CC1=C(C#N)C(/C=C(\Cl)c2ccc(F)cc2)C(C#N)=C(C)N1
BT-549 breast
  GI50: > 100 µM
  TGI: > 100 µM
T-47D breast
  GI50: > 100 µM
  TGI: > 100 µM

## OC(COc1ccccc1)CN1CCCCC1 (stereo not given)
MDA-N
  TGI: > 100 µM
BT-549 breast
  TGI: > 100 µM
T-47D breast
  TGI: > 100 µM

## COc1ccc(-c2n[nH]nc2-c2cc(OC)c3c(c2)OCO3)cc1
BT-549 breast
  GI50: 0.0847 µM
  TGI: 28.9 µM

## Cc1ccccc1N=Nc1c(-c2ccccc2)nn(C(=O)CC(=O)Nc2cccc(Cl)c2)c1-c1ccccc1
XF 498 CNS
  TGI: 74.6 µM
DLD-1 colon
  TGI: > 31.6 µM
LXFL 529 NSCLC
  TGI: > 31.6 µM
SNB-78 CNS
  TGI: > 31.6 µM

## COC(=O)N/N=C(\C)C(CN(C)C)C(c1ccccc1)c1c(O)c2ccccc2oc1=O (stereo not given)
XF 498 CNS
  TGI: > 100 µM
DLD-1 colon
  TGI: > 100 µM
LXFL 529 NSCLC
  TGI: > 100 µM
SNB-78 CNS
  TGI: > 100 µM
M19-MEL melanoma
  TGI: > 100 µM

## CC[C@@H](O)C[C@H]1CCC[C@@]2(C[C@@H]3OC(=O)/C=C/[C@@](C)(O)[C@@H](O)[C@H](C)[C@@H](O)[C@H](OC4CCC(N(C)C)C(C)O4)[C@@H](O)[C@](C)(O)CCCCC/C=C/[C@@H]4CC(C)(C)O[C@@]4(O)C[C@H](O2)[C@H]3C)O1 (stereo not given in full)
MDA-N
  TGI: 20.8 µM
BT-549 breast
  TGI: 29.2 µM
T-47D breast
  TGI: 26.3 µM

## COc1ccc(-c2nsc3c2NC(=O)CC3c2cccc(Cl)c2)cc1 (stereo not given)
BT-549 breast
  GI50: 7.51 µM
  TGI: > 100 µM
T-47D breast
  GI50: 3.54 µM
  TGI: > 100 µM

## Nc1ccccc1C(=O)NC(=O)Nc1ccc(Oc2ncc(Br)cn2)c(Cl)c1
DLD-1 colon
  TGI: 23.3 µM
LXFL 529 NSCLC
  TGI: 11.9 µM
SNB-78 CNS
  TGI: 26.4 µM
M19-MEL melanoma
  TGI: 13.1 µM
BT-549 breast
  TGI: > 62.9 µM
T-47D breast
  TGI: > 100 µM

## COc1cc(Nc2ncnc(Nc3ccc4c(n3)NC(=O)C(C)(C)O4)n2)cc(OC)c1OC
T-47D breast
  GI50: 1.18 µM
  TGI: > 100 µM

## COc1cc(-c2nccc3cc4c(cc23)OCO4)cc(OC)c1OC
BT-549 breast
  GI50: 16.6 µM
  TGI: > 100 µM
T-47D breast
  GI50: 5.25 µM
  TGI: > 100 µM

## Cn1cncc1-c1c(F)cncc1NC(=O)c1c(N)nn2cc(F)cnc12
BT-549 breast
  GI50: 0.838 µM
  TGI: 15.4 µM
T-47D breast
  GI50: 4.32 µM
  TGI: > 100 µM

## CC/C(Cc1ccccc1)=C(/c1ccc(O)cc1)c1ccc(OCCN2CCCC2)cc1
T-47D breast
  GI50: 1.26 µM
  TGI: 3.32 µM

## CCC[CH2][Sn]([CH2]CCC)([O]C(=O)c1cccc(F)c1F)[O]C(=O)c1cccc(F)c1F
XF 498 CNS
  GI50: 1.61 µM
  TGI: 2.97 µM
DLD-1 colon
  GI50: 0.653 µM
  TGI: 1.94 µM
LXFL 529 NSCLC
  GI50: 0.189 µM
  TGI: 0.526 µM
M19-MEL melanoma
  GI50: 0.436 µM
  TGI: 1.57 µM

## COc1cc2nc(-c3cccc4cccnc34)nc(NC3CCN(Cc4ccccc4)CC3)c2cc1OC
BT-549 breast
  GI50: 1.58 µM
  TGI: 3.36 µM

## CCN(CC)c1nc(NC2CCCCC2)c2nc(N(CC)CC)nc(NC3CCCCC3)c2n1
MDA-N
  TGI: > 100 µM
BT-549 breast
  TGI: > 100 µM
T-47D breast
  TGI: > 100 µM

## Cc1cccc(Nc2cc(Cl)nc(SCC(=O)O)n2)c1C
MDA-N
  TGI: > 100 µM
BT-549 breast
  TGI: > 100 µM
T-47D breast
  TGI: > 100 µM

## Cc1ccc(O)c(NC2=C(Cl)C(=O)N(Cc3ccccc3)C2=O)c1
BT-549 breast
  GI50: 18.1 µM
  TGI: 67.3 µM
T-47D breast
  GI50: 39 µM
  TGI: > 100 µM

## CCOc1ccc(C(C)=O)cc1NC(=O)c1cccc(-c2nnn(CC)n2)c1
BT-549 breast
  GI50: 0.961 µM
  TGI: > 100 µM
